Experiment [1] has as its target T1, AaegOR8 (Aedes aegypti (R)-1-octen-3-ol receptor OR8) (Aedes aegypti, UniProt Q16MN0).
T1 construct: gene GPRor8; with AaegOrco
T1 sequence (Q16MN0 1-422): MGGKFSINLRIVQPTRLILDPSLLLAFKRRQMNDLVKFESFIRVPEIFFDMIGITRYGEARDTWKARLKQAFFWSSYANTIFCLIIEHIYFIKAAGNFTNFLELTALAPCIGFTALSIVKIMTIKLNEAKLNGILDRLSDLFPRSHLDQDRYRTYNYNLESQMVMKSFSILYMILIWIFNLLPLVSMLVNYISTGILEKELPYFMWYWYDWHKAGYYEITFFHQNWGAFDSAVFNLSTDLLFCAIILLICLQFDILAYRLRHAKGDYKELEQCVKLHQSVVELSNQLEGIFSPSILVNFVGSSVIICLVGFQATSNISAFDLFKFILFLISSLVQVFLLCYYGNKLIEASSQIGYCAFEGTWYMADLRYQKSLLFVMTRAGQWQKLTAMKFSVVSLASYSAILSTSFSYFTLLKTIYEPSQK
T1 sequence (Q178U6 1-478 partner): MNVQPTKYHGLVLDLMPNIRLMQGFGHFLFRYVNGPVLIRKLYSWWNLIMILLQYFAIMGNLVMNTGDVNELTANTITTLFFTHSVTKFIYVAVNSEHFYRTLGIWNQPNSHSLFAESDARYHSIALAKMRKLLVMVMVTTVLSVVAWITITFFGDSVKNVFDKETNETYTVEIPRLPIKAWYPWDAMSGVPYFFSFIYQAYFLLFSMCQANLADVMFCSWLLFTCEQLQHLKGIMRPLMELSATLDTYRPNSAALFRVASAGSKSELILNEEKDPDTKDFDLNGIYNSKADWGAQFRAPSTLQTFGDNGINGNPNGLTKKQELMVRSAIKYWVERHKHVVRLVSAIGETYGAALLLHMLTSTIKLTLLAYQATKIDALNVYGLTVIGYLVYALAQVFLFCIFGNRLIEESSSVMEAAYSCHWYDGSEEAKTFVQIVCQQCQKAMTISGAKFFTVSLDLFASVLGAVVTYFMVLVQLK
As to the kind of experiment: two-electrode voltage clamp, Xenopus oocytes; baseline current shift under […] perfusion versus water-injected oocytes. Format: cell-based. (In two-electrode clamp one electrode senses voltage and the other passes current.)

For experiment [2], the target named is T1, AaegOR8 (Aedes aegypti (R)-1-octen-3-ol receptor OR8). As to the kind of experiment: two-electrode voltage clamp, Xenopus oocytes expressing AaegOR8-Orco; about […] inhibition at […]; not active on Orco alone. Format: cell-based. As to conditions: read-out: % reduction at 10^-3 M.

In the case of `CCCCN(CCC(=O)OCC)C(C)=O` [IR3535], in experiment [1], the “two-electrode voltage clamp, Xenopus oocytes; baseline current shift under 0.01” value is “Indole and insect repellents (DEET, IR3535) increased the baseline current state of AaegOR8-Orco-injected oocytes”. In the case of `c1ccc2[nH]ccc2c1` [indole], in experiment [2], the inhibition at 1000 µM was ~30%. As to `CCN(CC)C(=O)c1cccc(C)c1` [DEET], in experiment [1], the “two-electrode voltage clamp, Xenopus oocytes; baseline current shift under 0.01” value was “Indole and insect repellents (DEET, IR3535) increased the baseline current state of AaegOR8-Orco-injected oocytes”.

The values are drawn from publication PMC9652956, “The ovipositor cue indole inhibits animal host attraction in Aedes aegypti (Diptera: Culicidae) mosquitoes” (Parasites & Vectors, 2022).
